Structures can show the parent of a compound that is named as a salt.
Columns and labels:
Type in all cases: in vivo, humans
[1] = tested on: perception of the sweet taste of an aqueous solution of sweetener; test: Ranking sip and spit test of sweetness perception (R index); settings: 5% sucrose test sample, vs negative control
Procedure: The effect of the test compounds on the perception of the sweet taste of an aqueous solution of sweetener in humans was evaluated using a ranking “sip and spit” method.
(§1) The aqueous sweetener solutions were prepared by adding, fructose, sucrose or glucose (by weight), to water to achieve the desired concentration.
(§2) Compounds were first prepared as a 500-fold concentrated stock solution in 100% ethanol. These concentrated stocks were then added to the aqueous sweetener solutions to result in a final ethanol concentration of 0.2%. The control (positive and negative) samples were also normalized to 0.2% ethanol.
In the ranking test used for compound evaluation, taste panelists (n=15), rank samples in increasing order of sweetness. One set, comprising of 6 samples, was presented to each panelists at a given time and are asked to rank them in order of increasing sweetness.
Panelists were instructed not to eat or drink (except water) for at least 1 h before the test. During the test, panelists were instructed to sip each sample, swirl it around their mouth and then expectorate. After tasting each set, panelists were instructed to rank the 6 samples within the set from least sweet to most sweet. Where rank 1—is lowest in sweetness and rank 6—is highest in sweetness. Panelists cleansed their palates by rinsing with water, eating a cracker and waiting for an interval of 10 minutes. All samples were tasted at ambient temperatures. Each sample was tasted twice.
R index analysis was utilized to determine the degree of difference between a test and control sample. It indicates the level of discrimination between two samples. […] A positive control sample was used to assess the ability of the panelists to accurately discriminate sweetness perception differences from the negative control.

[2] = tested on: perception of the sweet taste of an aqueous solution of sweetener; test: Two-alternative forced choice sip and spit method (2AFC); settings: compound 20 ppm with positive 2AFC
Procedure: The effect of the test compounds on the perception of the sweet taste of an aqueous solution of sweetener in humans was evaluated using a two-alternative forced choice “sip and spit” method (2AFC).
as §1
as §2, with “0.2% ethanol. This level of ethanol was not seen to contribute any perceived sweetness.” for “0.2% ethanol.”
The 2AFC test used for compound evaluation was a blind and randomized test where taste panelists (n=15) evaluate a pair of sweetener solutions at a time—one sample contains aqueous sweetener solution plus compound (i.e. test) while the other contains aqueous sweetener solution at higher concentration without compound (i.e. positive control). Each test sample was compared against a positive control. For example, if the test sample contained 1× sweetener concentration with compound (e.g. 5% sucrose with compound), the positive control sample contained a 1.1× sweetener concentration (e.g. 5.5% sucrose without compound).
Panelists were instructed not to eat or drink (except water) for at least 1 h before the test. During the test, panelists were instructed to sip each sample, swirl it around their mouth and then expectorate. After tasting each sample in the pair, panelists were instructed to record the sample that is “sweeter” in taste. Panelists cleansed their palates by rinsing with water, eating a cracker and waiting for an interval of about 5 minutes. Each pair was tasted twice. All samples were tasted at ambient temperatures. Data were analyzed using binomial probabilities.
Approximate levels of sweetness enhancement in column 5 of Table 2 were calculated as follows:
Approximate levels of sweetness enhancement=Sweetener concentration of positive control surpassed by the test sample, divided by sweetener concentration for compound-containing sample (e.g. 1.15×=5.75% sucrose/5% sucrose).

[3] = tested on: perception of sweet taste, in an aqueous solution; test: Inherent sweetness assessment, difference from control sip and spit method; settings: compound 10 ppm in water, no sweetener
Procedure: The aqueous sucrose solutions were prepared by adding, sucrose (by weight), to water to achieve the desired concentration.
Compounds were first prepared as a 500-fold concentrated stock solution in 100% ethanol. These concentrated stocks were then added to water to result in a final ethanol concentration of 0.2%. The control (including positive control) samples were also normalized to 0.2% ethanol. This level of ethanol was not seen to contribute any perceived sweetness.
The intrinsic effect of test compounds on the perception of sweet taste, in an aqueous solution, in humans was evaluated using a difference from control “sip and spit” method employing a verbal category scale.
In this method, panelists (n=12) evaluate one pair of samples at a time—one sample contains water plus compound (i.e. test) while the other contains water without compound (i.e. control). Panelists were instructed to first taste the un-blinded control followed by the test sample and asked to rate the size of sweetness difference between the test and control sample, using a 6 point verbal category scale:
Verbal category scale • No difference • Slight difference • Slight/moderate difference • Moderate difference • Moderate/large difference • Very large difference
4 blinded controls comprising of one negative control (0% sucrose) and 3 positive control samples (0.5% sucrose, 1% sucrose and 2% sucrose) were also included as part of the test to evaluate the ability of panelists to rank the difference in sweetness perception between 0.5% sucrose, 1% sucrose and 2% sucrose compared to 0% sucrose control.
Panelists were instructed not to eat or drink (except water) for at least 1 h before the test. During the test, panelists were instructed to sip each sample, swirl it around their mouth and then expectorate. Panelists cleansed their palates by rinsing with water, eating a cracker and waiting for an interval of about 5 minutes. All samples were tasted at ambient temperatures.
The verbal category response for each test sample was converted into an integer numerical value, from 1 to 6 (e.g. no difference=1 and very large difference=6). Total numbers of panelist responses per integer value were plotted as a histogram. An assessment was then made, comparing mean, mode of the numerical value, and the distribution of the histogram plots, for test samples as compared to that of the positive (0.5% sucrose, 1% sucrose and 2% sucrose) and negative control (0% sucrose) sample. Inherent sweetness levels are then correlated to the positive controls as discrete bins: • Bin 1: 0% sucrose • Bin 2: >0% sucrose—<0.5% sucrose • Bin 3: 0.5% sucrose • Bin 4: >0.5% sucrose—<1% sucrose • Bin 5: 1% sucrose • Bin 6: >1% sucrose—<2% sucrose • Bin 7: 2% sucrose

[4] = compound 10 ppm, significant at R index ≧60

| SMILES | R Index Score [1, 4] | Fold increase in perceived sweetness ([2]; test sample 4% fructose) [X] | further results |
| --- | --- | --- | --- |
| O=C1CC(c2cccc(O)c2)Oc2cc(O)cc(O)c21 (centres unmarked) [Compound 10, 5,7-dihydroxy-2-(3-hydroxyphenyl)chroman-4-one] | 65 |  |  |
| O=C1CC(c2cccc(O)c2)Oc2cccc(O)c21 (centres unmarked) [Compound 12, 5-hydroxy-2-(3-hydroxyphenyl)chroman-4-one] |  |  | R Index Score ([1]; compound 2.5 ppm): 62 |
| COc1cc(C2CC(=O)c3c(O)cccc3O2)ccc1C (centres unmarked) [Compound 16] |  |  | Fold increase in perceived sweetness ([2]; test sample 5% sucrose): >1.1X |
| COc1ccc(C2CC(=O)c3c(O)cc(F)cc3O2)cc1O (centres unmarked) [Compound 15, 7-fluoro-5-hydroxy-2-(3-hydroxy-4-methoxyphenyl)chroman-4-one] |  | >1.1 | Correlated Inherent Sweetness Assessment [3]: 0% sucrose |
| COc1ccc(C2CC(=O)c3c(O)cc(OCCCC(=O)O)cc3O2)cc1O (centres unmarked) [Compound 4, 4-((5-hydroxy-2-(3-hydroxy-4-methoxyphenyl)-4-oxochroman-7-yl)oxy)butanoic acid] |  | >1.1 | Fold increase in perceived sweetness ([2]; test sample 5% sucrose): >1.1X |
| O=C1CC(c2ccc(O)cc2)Oc2cccc(O)c21 (centres unmarked) [Compound 7, 5-hydroxy-2-(4-hydroxyphenyl)chroman-4-one] | 71 |  |  |
| COc1ccc(C2CC(=O)c3c(O)cc(C)cc3O2)cc1O (centres unmarked) [Compound 6, 5-hydroxy-2-(3-hydroxy-4-methoxyphenyl)-7-methylchroman-4-one] | 82 |  |  |
| CCCOc1ccc(C2CC(=O)c3c(O)cc(O)cc3O2)cc1O (centres unmarked) [Compound 5, 5,7-dihydroxy-2-(3-hydroxy-4-propoxyphenyl)chroman-4-one] |  | >1.1 |  |
| COc1ccc(C2CC(=O)c3c(Cl)cc(O)cc3O2)cc1O (centres unmarked) [Compound 17] |  | 1.1 |  |
| COc1ccc(C2CC(=O)c3c(O)cc(OCCCS(=O)(=O)O)cc3O2)cc1O (centres unmarked) [Compound 14, 3-((5-hydroxy-2-(3-hydroxy-4-methoxyphenyl)-4-oxochroman-7-yl)oxy)propane-1-sulfonic acid potassium salt] |  | >1.1 |  |
| O=C1CC(c2ccc(O)c(O)c2)Oc2cccc(O)c21 (centres unmarked) [Compound 8, 2-(3,4-dihydroxyphenyl)-5-hydroxychroman-4-one] | 69 |  |  |
| COC(=O)c1cccc(C2CC(=O)c3c(O)cc(O)cc3O2)c1 (centres unmarked) [Compound 13, methyl 3-(5,7-dihydroxy-4-oxochroman-2-yl)benzoate] | 61 |  |  |

From patent US20160015064A1, “COMPOUNDS, COMPOSITIONS, AND METHODS FOR MODULATING SWEET TASTE” (CHROMOCELL CORPORATION, priority 2013, published 2016)
